Assay results from ChEMBL document CHEMBL1156089, “Anthranilic sulfonamide CCK1/CCK2 dual receptor antagonists I: discovery of CCKR1 selectivity in a previously CCKR2-selective lead series” (Bioorg Med Chem Lett, 2009).

Experiments:
[1] = molecular target: T1, Cholecystokinin receptor type A (Homo sapiens, UniProt P32238); assay: Displacement of [125I]-CCK-8S from CCK1R after 100 mins by liquid scintillation counting
T1 sequence (P32238 whole entry): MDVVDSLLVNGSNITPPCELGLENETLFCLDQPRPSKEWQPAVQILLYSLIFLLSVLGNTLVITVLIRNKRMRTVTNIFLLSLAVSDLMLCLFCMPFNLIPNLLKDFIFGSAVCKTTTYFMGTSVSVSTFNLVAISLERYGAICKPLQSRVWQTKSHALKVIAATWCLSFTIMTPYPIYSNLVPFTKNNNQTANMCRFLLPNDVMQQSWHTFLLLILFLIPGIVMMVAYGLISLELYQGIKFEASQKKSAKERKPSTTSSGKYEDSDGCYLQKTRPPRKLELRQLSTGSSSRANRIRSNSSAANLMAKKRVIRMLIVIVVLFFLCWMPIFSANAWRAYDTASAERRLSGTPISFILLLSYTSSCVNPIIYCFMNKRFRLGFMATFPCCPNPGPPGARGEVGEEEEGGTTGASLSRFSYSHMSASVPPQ

[2] = molecular target: T2, Gastrin/cholecystokinin type B receptor (Homo sapiens, UniProt P32239); assay: Displacement of [125I]-CCK-8S from CCK2R after 100 mins by liquid scintillation counting
T2 sequence (P32239 whole entry): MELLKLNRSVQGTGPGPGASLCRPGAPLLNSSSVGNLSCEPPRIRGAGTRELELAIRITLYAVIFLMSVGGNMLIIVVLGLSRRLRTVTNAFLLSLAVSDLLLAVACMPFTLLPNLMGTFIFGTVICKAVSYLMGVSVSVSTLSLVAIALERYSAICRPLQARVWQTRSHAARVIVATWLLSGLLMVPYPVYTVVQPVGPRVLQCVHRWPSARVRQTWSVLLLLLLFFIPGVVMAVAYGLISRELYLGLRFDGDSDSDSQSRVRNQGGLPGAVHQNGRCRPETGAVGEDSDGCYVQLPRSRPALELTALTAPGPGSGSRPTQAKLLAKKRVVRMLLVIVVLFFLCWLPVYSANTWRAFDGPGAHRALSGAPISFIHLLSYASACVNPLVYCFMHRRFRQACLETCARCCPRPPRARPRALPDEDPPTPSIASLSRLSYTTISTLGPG

| SMILES | Ki [1] [nM] | Ki [2] [nM] |
| --- | --- | --- |
| CC(CNC(=O)c1ccc(Cl)cc1NS(=O)(=O)c1cccc2nsnc12)c1ccc(Cl)cc1 (racemic) | 100 | – |
| O=C(N[C@H](Cc1ccccc1)C(=O)O)c1ccc(Cl)cc1NS(=O)(=O)c1cccc2nsnc12 | 3160 | 158 |
| C[C@H](c1ccc(Cl)c(Cl)c1)[C@@H](NC(=O)c1ccc(Cl)cc1NS(=O)(=O)c1cccc2nsnc12)C(=O)O | 200 | 1580 |
| CC(C)(c1ccc(Cl)cc1)[C@H](NC(=O)c1ccc(Cl)cc1NS(=O)(=O)c1cccc2nsnc12)C(=O)O | – | 1000 |
| O=C(NCC(c1ccc(Cl)cc1)c1ccc(Cl)cc1)c1ccc(Cl)cc1NS(=O)(=O)c1cccc2nsnc12 | – | > 10000 |
| O=C(NCc1ccccc1)c1ccc(Cl)cc1NS(=O)(=O)c1cccc2nsnc12 | > 10000 | – |
| O=C(NCCc1ccc(Cl)cc1)c1ccc(Cl)cc1NS(=O)(=O)c1cccc2nsnc12 | 1000 | > 10000 |
| O=C(NCCCc1ccccc1)c1ccc(Cl)cc1NS(=O)(=O)c1cccc2nsnc12 | 2000 | 1000 |
| CN(CCc1ccccc1)C(=O)c1ccc(Cl)cc1NS(=O)(=O)c1cccc2nsnc12 | 3980 | 316 |
| O=C(N[C@H](C(=O)O)C(c1ccc(Cl)cc1)c1ccc(Cl)cc1)c1ccc(Cl)cc1NS(=O)(=O)c1cccc2nsnc12 | > 10000 | – |
| O=C(N[C@H](Cc1ccc(Cl)cc1)C(=O)O)c1ccc(Cl)cc1NS(=O)(=O)c1cccc2nsnc12 | 316 | 631 |
| O=C(NCCc1ccccc1)c1ccc(Br)cc1NS(=O)(=O)c1cccc2nsnc12 | 398 | 631 |
| O=C(N[C@@H](Cc1ccc(Cl)cc1)C(=O)O)c1ccc(Cl)cc1NS(=O)(=O)c1cccc2nsnc12 | 2000 | 63.1 |
| O=C(N[C@@H](Cc1ccccc1)C(=O)O)c1ccc(Cl)cc1NS(=O)(=O)c1cccc2nsnc12 | 3980 | 79.4 |
| O=C(NCCc1ccc(Cl)c(Cl)c1)c1ccc(Cl)cc1NS(=O)(=O)c1cccc2nsnc12 | 79.4 | 7940 |
| O=C(NCCc1ccccc1)c1ccc(Cl)cc1NS(=O)(=O)c1cccc2nsnc12 | 158 | 6310 |
